Source: the supplement of paper PMC10307832

Key:
Assay in all cases: relative viability (nuclei count vs DMSO), 5 days (fraction); higher = more cells survive
[1] = compound: CCCS(=O)(=O)Nc1ccc(F)c(C(=O)c2c[nH]c3ncc(-c4ccc(Cl)cc4)cc23)c1F [Vemurafenib] + COc1cc2c(Oc3ccc(NC(=O)C4(C(=O)Nc5ccc(F)cc5)CC4)cc3F)ccnc2cc1OCCCN1CCOCC1 [Foretinib] (partner 0.25 µM)
In short: (§1)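 Each reported value is a median over duplicate plates. It expresses relative viability: treated-well nuclei count divided by vehicle-well nuclei count. Lung cancer cell lines in 1536-well plates were dosed by pin tool a day after seeding, alone with one drug or with a fixed anchor-drug dose plus five library-drug doses (not always all listed) in √10 steps, and nuclei were counted after 5 days.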

[2] = compound: COc1cccc2cc(-c3nc([C@H]4CC[C@H](C(=O)O)CC4)n4ncnc(N)c34)[nH]c12 [OSI-027] + CCNC(=O)c1noc(-c2cc(C(C)C)c(O)cc2O)c1-c1ccc(CN2CCOCC2)cc1 [Luminespib] (partner 0.01 µM)
In short: as §1

[3] = compound: Cc1nc(NC(=O)N2CCC[C@H]2C(N)=O)sc1-c1ccnc(C(C)(C)C(F)(F)F)c1 [Alpelisib] + C[C@@H](Oc1cc(-c2cnn(C3CCNCC3)c2)cnc1N)c1c(Cl)ccc(F)c1Cl [Crizotinib] (partner 1 µM)
In short: as §1

[4] = compound: COc1cccc2cc(-c3nc([C@H]4CC[C@H](C(=O)O)CC4)n4ncnc(N)c34)[nH]c12 [OSI-027] + Cc1nc(Nc2ncc(C(=O)Nc3c(C)cccc3Cl)s2)cc(N2CCN(CCO)CC2)n1 [Dasatinib] (partner 0.075 µM)
In short: as §1

Cell Line | relative viability ([1]; first compound 0.03162 µM) | relative viability ([1]; first compound 0.1 µM) | relative viability ([1]; first compound 0.3162 µM) | relative viability ([1]; first compound 1 µM) | relative viability ([2]; first compound 0.01 µM) | relative viability ([2]; first compound 0.03162 µM) | relative viability ([2]; first compound 0.1 µM) | relative viability ([2]; first compound 0.3162 µM) | relative viability ([2]; first compound 1 µM) | relative viability ([3]; first compound 0.04 µM) | relative viability ([3]; first compound 0.1265 µM) | relative viability ([3]; first compound 0.4 µM) | relative viability ([3]; first compound 1.265 µM) | relative viability ([3]; first compound 4 µM) | relative viability ([4]; first compound 0.01 µM) | relative viability ([4]; first compound 0.03162 µM) | relative viability ([4]; first compound 0.1 µM) | relative viability ([4]; first compound 0.3162 µM) | relative viability ([4]; first compound 1 µM)
RERF-LC-KJ | 0.858 | 0.816 | 0.875 | 0.876 | 1.41 | 1.09 | 1.08 | 1.09 | 0.459 | 0.76 | 0.77 | 0.83 | 0.787 | 0.741 | 0.835 | 0.776 | 0.748 | 0.557 | 0.349
EKVX | 0.617 |  | 0.745 | 0.703 | 0.743 | 0.8 | 0.872 | 0.727 | 0.604 | 0.956 | 0.918 | 1.06 | 0.749 | 0.619 | 0.516 | 0.472 | 0.515 | 0.429 | 0.316
NCI-H441 | 0.962 | 0.696 | 0.919 | 0.912 | 0.367 | 0.393 | 0.307 | 0.235 | 0.236 | 0.743 | 0.567 | 0.746 | 0.432 | 0.435 | 0.74 | 0.577 | 0.706 | 0.505 | 0.526
CAL-12T | 1.15 | 0.828 | 1.33 | 1.09 | 0.342 | 0.533 | 0.589 | 0.0997 | 0.117 | 0.66 | 0.53 | 0.711 | 0.556 | 0.596 | 0.4 | 0.376 | 0.367 | 0.36 | 0.148
201T | 0.984 | 1 | 1.06 | 1.1 | 1.09 | 1.06 | 1 | 0.948 | 0.485 | 0.985 | 1 | 1.07 | 0.98 | 0.936 | 0.594 | 0.567 | 0.588 | 0.504 | 0.398
SK-LU-1 | 0.706 | 0.709 | 0.647 | 0.705 | 0.188 | 0.198 | 0.173 | 0.181 | 0.152 | 0.987 | 0.792 | 1.01 | 0.773 | 0.763 | 0.169 | 0.172 | 0.178 | 0.127 | 0.134
LC-2-ad | 0.859 | 0.705 |  | 1.01 | 1.05 | 1.1 | 0.862 | 0.874 | 0.659 | 0.501 | 0.316 | 0.532 | 0.351 | 0.386 | 0.585 | 0.537 | 0.494 | 0.455 | 0.333
LCLC-103H | 0.668 | 0.685 | 0.704 | 0.69 | 1.03 | 0.994 | 0.908 | 0.85 | 0.504 | 0.928 | 0.976 | 1.05 | 0.899 | 0.787 | 0.48 | 0.497 | 0.434 | 0.439 | 0.27
NCI-H1944 | 0.868 | 0.614 | 0.879 | 0.837 | 0.856 | 0.82 | 0.537 | 0.534 | 0.273 | 1.01 | 1.24 | 1.14 | 0.725 | 0.523 | 0.192 | 0.204 | 0.191 | 0.178 | 0.162
NCI-H650 | 1.01 | 0.983 |  | 0.879 | 0.757 | 0.731 | 0.749 | 0.648 | 0.381 | 0.737 | 0.693 | 0.88 | 0.478 | 0.546 | 0.405 | 0.464 | 0.336 | 0.347 | 0.311
ChaGo-K-1 | 0.885 | 0.938 | 0.85 | 0.901 | 0.574 | 0.648 | 0.586 | 0.355 | 0.31 | 1.13 |  | 1.15 | 0.988 | 0.841 | 0.515 | 0.618 | 0.5 | 0.549 | 0.474
SK-MES-1 | 0.91 | 0.461 | 0.879 | 0.795 | 0.75 | 0.63 | 0.731 | 0.554 | 0.227 | 1.03 | 0.875 | 0.968 | 0.83 | 0.67 | 0.293 | 0.407 | 0.295 | 0.25 | 0.247
NCI-H2347 | 0.662 | 0.91 | 0.843 | 0.811 | 0.283 | 0.339 | 0.604 | 0.279 | 0.288 | 0.674 | 0.897 | 0.859 | 0.603 | 0.61 | 0.281 | 0.379 | 0.205 | 0.22 | 0.268
PC-14 | 0.882 |  | 0.876 | 0.942 | 0.146 | 0.108 | 0.126 | 0.17 | 0.17 | 0.817 | 0.893 | 1.04 | 0.842 | 0.766 | 0.237 | 0.253 | 0.241 | 0.303 | 0.197
LXF-289 | 0.968 | 0.931 | 1.07 | 1.07 | 0.544 | 0.612 | 0.471 | 0.458 | 0.258 | 0.798 | 0.792 | 0.875 | 0.84 | 0.778 | 0.175 | 0.216 | 0.198 | 0.182 | 0.102
NCI-H596 | 0.921 | 0.643 | 0.695 | 0.922 | 0.96 | 0.908 | 0.988 | 0.851 | 0.574 | 1.06 | 1.01 | 0.841 | 0.616 | 0.406 | 0.588 | 0.55 | 0.606 | 0.562 | 0.564
NCI-H358 | 0.638 | 0.494 | 0.886 | 0.858 | 0.384 | 0.295 | 0.468 | 0.41 | 0.311 | 0.785 | 0.534 | 0.725 | 0.473 | 0.354 | 0.154 | 0.183 | 0.158 | 0.127 | 0.132
